IC50 data for twelve compounds are collected here from BindingDB's records for doi:10.1111/cbdd.12189 (Tianjin Medical University, 2013).

Each structure is given as a SMILES string.

Broadly, the IC50 is the concentration at which inhibition is half-maximal. The low end stands for inhibition by little substance, the high end for a need for much substance.

The target in experiment [1] is T1, Tyrosine-protein phosphatase non-receptor type 1 (Homo sapiens, UniProt P18031).
T1 sequence (P18031 whole entry): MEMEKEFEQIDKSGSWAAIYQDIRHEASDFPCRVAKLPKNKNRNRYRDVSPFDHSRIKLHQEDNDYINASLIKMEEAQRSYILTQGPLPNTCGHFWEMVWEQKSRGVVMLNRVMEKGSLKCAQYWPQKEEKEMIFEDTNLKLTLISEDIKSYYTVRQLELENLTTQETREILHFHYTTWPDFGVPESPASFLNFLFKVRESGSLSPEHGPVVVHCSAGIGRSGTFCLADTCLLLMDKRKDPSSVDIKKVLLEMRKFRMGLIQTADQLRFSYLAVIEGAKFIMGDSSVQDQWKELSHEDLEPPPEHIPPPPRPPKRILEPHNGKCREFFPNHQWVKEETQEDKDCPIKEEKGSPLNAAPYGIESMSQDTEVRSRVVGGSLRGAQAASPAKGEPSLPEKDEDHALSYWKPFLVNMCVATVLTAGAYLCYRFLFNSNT
The experiment is described as follows: PTP activity assay. Conditions: pH 6; 37 °C. As to the method: (§1) The enzyme activity was measured using p-nitrophenyl phosphate (pNPP) as substrate in a 96-well plate and by detecting the absorbance at 405 nm for the amount of produced p-nitrophenol. Purified human recombinant PTP1B or TCPTP (0.05 µg) in 50 µL buffer containing 50 mM citrate (pH 6.0), 0.1 M NaCl, 1 mM EDTA, and 1 mM DTT and test compounds were added to each well. Each mixture was pre-incubated for 15 min at room temperature, followed by the addition of 50 µL of reaction buffer containing 2 mM pNPP and incubated at 37°C for 30 min.

The target of experiment [2] is T2, Tyrosine-protein phosphatase non-receptor type 2 (Homo sapiens, UniProt P17706).
T2 sequence (P17706 whole entry): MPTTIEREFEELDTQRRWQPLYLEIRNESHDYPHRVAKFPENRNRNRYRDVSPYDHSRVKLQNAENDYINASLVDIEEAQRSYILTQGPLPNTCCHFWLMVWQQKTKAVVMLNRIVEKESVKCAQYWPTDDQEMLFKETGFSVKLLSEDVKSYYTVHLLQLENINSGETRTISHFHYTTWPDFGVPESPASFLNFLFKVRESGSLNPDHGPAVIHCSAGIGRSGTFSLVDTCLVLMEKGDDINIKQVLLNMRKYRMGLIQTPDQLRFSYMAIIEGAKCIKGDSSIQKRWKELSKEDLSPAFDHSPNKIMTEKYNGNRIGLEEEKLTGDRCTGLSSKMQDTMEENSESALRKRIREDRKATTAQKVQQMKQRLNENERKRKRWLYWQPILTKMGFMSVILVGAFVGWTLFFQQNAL
The experiment is described as follows: PTP activity assay. Conditions: pH 6; 37 °C. As to the method: as §1

As for `O=C1NC(=O)/C(=C/c2ccccc2OCc2ccc(Cl)cc2Cl)N1` [(5Z)‐5‐({2‐[(2,4‐ dichlorophenyl)methoxy]phenyl}methylidene)imidazolidine‐ 2,4‐dione (comp#c)], the half-maximal inhibitory concentration (IC50) in experiment [1] turned out to be 4.1 µM; in experiment [2], 18.7 µM.
On to `O=C1NC(=O)/C(=C/c2ccccc2OCc2cccc(Cl)c2)N1` [(5Z)‐5‐({2‐[(3‐ chlorophenyl)methoxy]phenyl}methylidene)imidazolidine‐ 2,4‐dione (comp#a)], for which the half-maximal inhibitory concentration (IC50) came to 37.4 µM in experiment [1] and 36.8 µM in experiment [2].
Consider `O=C1NC(=O)/C(=C/c2ccccc2OCc2ccc(Cl)cc2)N1` [(5Z)‐5‐({2‐[(4‐ chlorophenyl)methoxy]phenyl}methylidene)imidazolidine‐ 2,4‐dione (comp#b)], for which the 50% inhibitory concentration (IC50) in experiment [1] stood at 4.6 µM; in experiment [2], 35.9 µM.
As for `O=C1NC(=O)/C(=C/c2cccc(OCc3ccc(Cl)cc3Cl)c2)N1` [(5Z)‐5‐({3‐[(2,4‐ dichlorophenyl)methoxy]phenyl}methylidene)imidazolidine‐ 2,4‐dione (comp#h)], the IC50 in experiment [1] was 4.1 µM; in experiment [2], more than 138 µM.
The corresponding values for `O=C1NC(=O)/C(=C/c2cccc(OCc3ccc(Cl)c(Cl)c3)c2)N1` [(5Z)‐5‐({3‐[(3,4‐ dichlorophenyl)methoxy]phenyl}methylidene)imidazolidine‐ 2,4‐dione (comp#i)] are 2.8 µM and 33.6 µM.
The corresponding values for `O=C1NC(=O)/C(=C/c2cccc(OCc3ccc(Cl)cc3)c2)N1` [(5Z)‐5‐({3‐[(4‐ chlorophenyl)methoxy]phenyl}methylidene)imidazolidine‐ 2,4‐dione (comp#g)] are 40.8 µM and 137 µM.
Compound `O=C1NC(=O)/C(=C/c2ccc(OCc3ccc(Cl)cc3Cl)cc2)N1` [(5Z)‐5‐({4‐[(2,4‐ dichlorophenyl)methoxy]phenyl}methylidene)imidazolidine‐ 2,4‐dione (comp#j)] returned a half-maximal inhibitory concentration (IC50) in experiment [2] of 11.6 µM.
The same measure, in the same setting: under `O=C1NC(=O)/C(=C/c2ccc(OCc3ccc(Cl)c(Cl)c3)cc2)N1` [(5Z)‐5‐({4‐[(3,4‐ dichlorophenyl)methoxy]phenyl}methylidene)imidazolidine‐ 2,4‐dione (comp#k)] stands 33.9 µM.
Take `COc1ccc(COc2ccc(/C=C3\NC(=O)NC3=O)cc2)cc1` [(5Z)‐5‐({4‐[(4‐ methoxyphenyl)methoxy]phenyl}methylidene)imidazolidine‐ 2,4‐dione (comp#l)]: the IC50 in experiment [1] is 3.4 µM; in experiment [2], 31.4 µM.
The corresponding values for `O=C1NC(=O)/C(=C/c2cccc(OCc3ccccc3)c2)N1` [(5Z)‐5‐{[3‐ (benzyloxy)phenyl]methylidene}imidazolidine‐2,4‐ dione (comp#d)] are more than 170 µM and more than 170 µM.
On the same counts, the results for `O=C1NC(=O)/C(=C/c2cccc(OCCc3ccccc3)c2)N1` [(5Z)‐5‐{[3‐(2‐ phenylethoxy)phenyl]methylidene}imidazolidine‐2,4‐ dione (comp#e)] are 11.4 µM and 44.1 µM.
The corresponding values for `O=C1NC(=O)/C(=C/c2cccc(OCCCc3ccccc3)c2)N1` [(5Z)‐5‐{[3‐(3‐ phenylpropoxy)phenyl]methylidene}imidazolidine‐2,4‐ dione (comp#f)] are 41.9 µM and 22.3 µM.
